Laboratory results taken from patent US20240409566A1, “DELIVERY OF THERAPEUTIC ALKALOID COMPOUNDS” (priority 2022, published 2024).

Tests used:
[1] = Plasma stability assay, human plasma; assay type: in vitro ADME
Description: (§1) Compound stability in rat and human plasma was measured by incubating compound with rat or human plasma at 37° C. in a microwell plate for sequential time points, monitoring pro-drug disappearance and metabolite appearance (mesembranol or 6-epi-mesembranol). A 2 mM stock solution of test compounds were prepared by dissolving appropriate amount of compounds in DMSO. The 2 mM stock was further diluted 200-folds in rat or human plasma to attain a final concentration of 10 μM respectively (0.5% DMSO). 50 μL aliquots of positive controls and test compounds spiked into rat or human plasma (n=2) were added to a pre-warmed plate (37° C.) and shaken at 50 rpm. At each respective time point, the reaction was stopped by adding 500 μL of acetonitrile containing internal standards (100 nM aprozolam, 200 nM caffeine, 100 nM tolbutamide). All samples were vortexed for 10 minutes, followed by centrifugation at 3,220 g for 30 minutes to precipitate proteins. 100 μL of the supernatant is transferred to a new plate. The supernatant will be diluted with ultrapure water according to the LC-MS signal response and peak shape. The concentrations of test compounds and positive control were quantified in the test samples using LC-MS/MS. Results reported as % of prodrug compound remaining at time point, and % of metabolite (mesembranol or 6-epi-mesembranol,) accumulated at time point.

[2] = Plasma stability assay, rat plasma; assay type: in vitro ADME
Description: as §1

[3] = human plasma, 37° C., 10 μM, 0 min, % prodrug remaining
[4] = human plasma, 37° C., 10 μM, 10 min, % prodrug remaining
[5] = human plasma, 37° C., 10 μM, 30 min, % prodrug remaining
[6] = human plasma, 37° C., 10 μM, 60 min, % prodrug remaining
[7] = human plasma, 37° C., 10 μM, 120 min, % prodrug remaining
[8] = human plasma, 37° C., 10 μM, 240 min, % prodrug remaining
[9] = rat plasma, 37° C., 10 μM, 0 min, % prodrug remaining
[10] = rat plasma, 37° C., 10 μM, 10 min, % prodrug remaining
[11] = rat plasma, 37° C., 10 μM, 30 min, % prodrug remaining
[12] = rat plasma, 37° C., 10 μM, 60 min, % prodrug remaining
[13] = rat plasma, 37° C., 10 μM, 120 min, % prodrug remaining
[14] = rat plasma, 37° C., 10 μM, 240 min, % prodrug remaining

Row | Structure (SMILES) | Prodrug (%) ([1]; human, 0 min, 10 µM) | Prodrug (%) ([1]; human, 10 min, 10 µM) | Prodrug (%) ([1]; human, 30 min, 10 µM) | Prodrug (%) ([1]; human, 60 min, 10 µM) | Prodrug (%) ([1]; human, 120 min, 10 µM) | Prodrug (%) ([1]; human, 240 min, 10 µM) | Prodrug (%) ([2]; rat, 0 min, 10 µM) | Prodrug (%) ([2]; rat, 10 min, 10 µM) | Prodrug (%) ([2]; rat, 30 min, 10 µM) | Prodrug (%) ([2]; rat, 60 min, 10 µM) | Prodrug (%) ([2]; rat, 120 min, 10 µM) | Prodrug (%) ([2]; rat, 240 min, 10 µM) | other results
1 | COc1ccc([C@@]23CC[C@H](OC(=O)C(C)C)C[C@@H]2N(C)CC3)cc1OC [Compound 103, (3aS,6S,7aS)-3a-(3,4-dimethoxyphenyl)-1-methyloctahydro-1H-indol-6-yl isobutyrate] | 100.00 | >99.0 | >99.0 | 97.28 | 97.48 | 87.17 | 100.0 | 56.1 | 12.2 | 0.6 | 0.1 | 0.0 | –
2 | COc1ccc([C@@]23CC[C@@H](OC(=O)C(C)(C)C)C[C@@H]2N(C)CC3)cc1OC [Compound 202, (3aS,6R,7aS)-3a-(3,4-dimethoxyphenyl)-1-methyloctahydro-1H-indol-6-yl pivalate] | 100.0 | >99.0 | >99.0 | 96.3 | 94.7 | 88.1 | 100.0 | 80.6 | 38.9 | 9.6 | 0.6 | 0.0 | –
3 | COc1ccc([C@@]23CC[C@@H](OC(=O)C(C)C)C[C@@H]2N(C)CC3)cc1OC [Compound 203, (3aS,6R,7aS)-3a-(3,4-dimethoxyphenyl)-1-methyloctahydro-1H-indol-6-yl isobutyrate] | 100.0 | 0.1 | 0.1 | 0.1 | 0.1 | 0.1 | 100.0 | 0.1 | 0.1 | 0.0 | 0.0 | 0.0 | –
4 | CCCCC(=O)O[C@H]1CC[C@@]2(c3ccc(OC)c(OC)c3)CCN(C)[C@H]2C1 [Compound 105, (3aS,6S,7aS)-3a-(3,4-dimethoxyphenyl)-1-methyloctahydro-1H-indol-6-yl pentanoate] | 100.00 | 96.40 | 89.85 | 81.61 | 72.68 | 50.16 | 100.0 | 10.8 | 0.5 | 0.1 | 0.0 | 0.0 | –
5 | CCCCC(=O)OC1CC[C@@]2(c3ccc(OC)c(OC)c3)CCN(C)[C@H]2C1 (stereo in doubt) [Compound 205, (3aS,6S,7aS)-3a-(3,4-dimethoxyphenyl)-1-methyloctahydro-1H-indol-6-yl pentanoate] | 100.0 | 96.7 | 90.7 | 84.3 | 80.3 | 67.9 | 100.0 | 0.6 | 0.1 | 0.1 | 0.1 | 0.0 | –
6 | CCCC(=O)OCO[C@@H]1CC[C@@]2(c3ccc(OC)c(OC)c3)CCN(C)[C@H]2C1 [Compound 210, (((3aS,6R,7aS)-3a-(3,4-dimethoxyphenyl)-1-methyloctahydro-1H-indol-6-yl)oxy)methyl butyrate] | 100.0 | 0.5 | 1.0 | 0.6 | 0.1 | 0.1 | 100.0 | 0.0 | 0.0 | 0.0 | 0.1 | 0.1 | –
7 | COc1ccc([C@@]23CC[C@@H](OC(=O)N(C)C)C[C@@H]2N(C)CC3)cc1OC [Compound 201, (3aS,6R,7aS)-3a-(3,4-dimethoxyphenyl)-1-methyloctahydro-1H-indol-6-yl dimethylcarbamate] | – | – | – | – | – | – | – | – | – | – | – | – | Prodrug (%) [1, 3]: 100.0%; Prodrug (%) [1, 4]: 96.3%; Prodrug (%) [1, 5]: 97.0%; Prodrug (%) [1, 6]: 94.8%; Prodrug (%) [1, 7]: 97.7%; Prodrug (%) [1, 8]: >99.0%; Prodrug (%) [2, 9]: 100.0%; Prodrug (%) [2, 10]: >99.0%; Prodrug (%) [2, 11]: >99.0%; Prodrug (%) [2, 12]: >99.0%; Prodrug (%) [2, 13]: >99.0%; Prodrug (%) [2, 14]: 97.6%
8 | CCCC(=O)OC1CC[C@@]2(c3ccc(OC)c(OC)c3)CCN(C)[C@H]2C1 (stereo in doubt) [Compound 206, (3aS,6S,7aS)-3a-(3,4-dimethoxyphenyl)-1-methyloctahydro-1H-indol-6-yl butyrate] | 100.0 | >99.0 | 92.7 | 83.8 | 79.1 | 68.0 | 100.0 | 0.8 | 0.1 | 0.0 | 0.0 | 0.0 | –
9 | COc1ccc([C@@]23CC[C@@H](OC(=O)c4ccccc4)C[C@@H]2N(C)CC3)cc1OC [Compound 204, (3aS,6R,7aS)-3a-(3,4-dimethoxyphenyl)-1-methyloctahydro-1H-indol-6-yl benzoate] | – | – | – | – | – | – | – | – | – | – | – | – | Prodrug (%) [1, 3]: 100.00%; Prodrug (%) [1, 4]: 97.40%; Prodrug (%) [1, 5]: 94.26%; Prodrug (%) [1, 6]: 92.22%; Prodrug (%) [1, 7]: 93.59%; Prodrug (%) [1, 8]: 91.87%; Prodrug (%) [2, 9]: 100.0%; Prodrug (%) [2, 10]: 38.7%; Prodrug (%) [2, 11]: 5.9%; Prodrug (%) [2, 12]: 0.6%; Prodrug (%) [2, 13]: 0.1%; Prodrug (%) [2, 14]: 0.0%
10 | COc1ccc([C@@]23CC[C@H](OC(=O)c4ccccc4)C[C@@H]2N(C)CC3)cc1OC [Compound 104, (3aS,6S,7aS)-3a-(3,4-dimethoxyphenyl)-1-methyloctahydro-1H-indol-6-yl benzoate] | – | – | – | – | – | – | – | – | – | – | – | – | Prodrug (%) [1, 3]: 100.00%; Prodrug (%) [1, 4]: >99.0%; Prodrug (%) [1, 5]: 97.34%; Prodrug (%) [1, 6]: 97.40%; Prodrug (%) [1, 7]: 95.15%; Prodrug (%) [1, 8]: 90.28%; Prodrug (%) [2, 9]: 100.0%; Prodrug (%) [2, 10]: 62.0%; Prodrug (%) [2, 11]: 27.5%; Prodrug (%) [2, 12]: 7.5%; Prodrug (%) [2, 13]: 1.4%; Prodrug (%) [2, 14]: 0.6%
11 | CCOC(=O)O[C@@H]1CC[C@@]2(c3ccc(OC)c(OC)c3)CCN(C)[C@H]2C1 [Compound 209, (3aS,6R,7aS)-3a-(3,4-dimethoxyphenyl)-1-methyloctahydro-1H-indol-6-yl ethyl carbonate] | 100.0 | 96.0 | 91.8 | 87.6 | 84.1 | 72.5 | 100.0 | 11.5 | 0.0 | 0.0 | 0.0 | 0.0 | –
